Patent US20210255193A1, “LYSINE REACTIVE PROBES AND USES THEREOF” (The Scripps Research Institute, priority 2017, published 2021)

Assays:
Assay in all cases: competitive isoTOP-ABPP
Assay type in all cases: binding
[1] = molecular target: T1, TPD52L2 Tumor protein D54 (Homo sapiens, UniProt O43399); details: for isoTOP-ABPP ratio (R) at liganded lysine O43399_K90: 50 uM, in vitro, sol, 231
T1 construct: isoTOP-ABPP experiments performed in cell lysates (in vitro); endogenous in cells; host or cells: MDA-MB-231 soluble lysate
T1 sequence (O43399 whole entry): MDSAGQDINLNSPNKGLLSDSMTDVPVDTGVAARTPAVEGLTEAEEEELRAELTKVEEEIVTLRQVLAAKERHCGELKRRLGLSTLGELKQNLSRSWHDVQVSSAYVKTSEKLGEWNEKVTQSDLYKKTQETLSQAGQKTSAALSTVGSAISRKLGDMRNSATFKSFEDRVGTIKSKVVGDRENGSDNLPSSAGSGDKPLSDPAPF
Description: (§1) In vitro covalent fragment treatment for isoTOP-ABPP. All compounds were made up as solutions in DMSO (100×) and were used at a final concentration of 50 μM for activated esters and 100 μM for guanidinylating agents. For each profiling sample, 0.5 ml of lysate was treated with 5 μl of the 100× compound stock solution or 5 μl of DMSO. Samples were treated with activated esters for
(§2) STP-alkyne labeling and click chemistry. For concentration-dependent reactivity measurements by isoTOP-ABPP, 0.5 ml proteome aliquots were treated at ambient temperature with 1 mM STP-alkyne 1 (5 μl of 100 mM stock in DMSO) and 0.1 mM STP alkyne 1 (5 μl of 10 mM stock in DMSO), respectively. For competitive isoTOP-ABPP, after in vitro fragment treatment (detailed above), the samples were labeled for 1 h at ambient temperature with 0.1 mM STP-alkyne 1 (5 μl of 10 mM stock in DMSO). Samples were conjugated by copper-mediated azide-alkyne cycloaddition (CuAAC) to either the light (1 mM STP-alkyne or fragment treated) or heavy (0.1 mM STP-alkyne or DMSO treated) TEV tags (10 μl of 5 mM stocks in DMSO, final concentration=100 μM) using tris(2-carboxyethyl)phosphine hydrochloride
(§3) R value calculation and processing. The ratios of light and heavy MS1 peaks for each unique peptide were quantified with a CIMAGE software using default parameters (3 MS1 acquisitions per peak and signal to noise threshold set to 2.5). For reactivity measurements by isoTOP-ABPP, the R value was calculated from the ratio of MS1 peak areas, comparing the 1 mM STP alkyne sample (light TEV tag) with the 0.1 mM STP alkyne sample (heavy TEV tag). For competitive isoTOP-ABPP, the R value was calculated from the ratio of MS1 peak areas, comparing the DMSO treated sample (heavy TEV tag) with the compound treated sample (light TEV tag). […] Ratios for unique peptide entries are calculated for each experiment; overlapping peptides with the same modified lysine (for example, different charge states, MudPIT chromatographic steps or tryptic termini) are grouped together and the median ratio is reported as the final ratio (R). The peptide ratios reported by CIMAGE were further filtered to ensure the removal or correction of low-quality ratios in each individual data set. The quality filters applied were the following: removal of half tryptic peptides; for ratios with high standard deviations from the median (90% of the median or above) the lowest ratio was taken instead of the median; removal of peptides with R=20 and only a single MS2 event triggered during the elution of the parent ion; manual annotation of all the peptides with ratios of 20, removing any peptides with low quality elution profiles that remained after the previous curation steps (only done for competitive isoTOP-ABPP).
(§4) Cross-data processing for fragment screening. For compound treated samples, biological replicates of the same condition were averaged, if the standard deviation was below 60% of the mean; otherwise, for lysines with at least one R value <4 for a particular compound, the lowest value of the ratio set was taken. For lysines, where all R values for a particular compound were ≥4, the average was reported. For peptides containing several possible modified lysines, the lysine with the highest number of quantification events was used for analysis and the remaining, redundant peptides were reported as alternative modification sites. Peptides included in the aggregate dataset (those used for further bioinformatics and statistical analyses) were required to have been quantified in 2 experiments for competitive isoTOP-ABPP. Lysines were categorized as liganded, if they had at least one ratio R≥4 (hit fragments). For liganded lysines with R=20 for all liganding events, lysines were required to have been quantified with R=20 in two separate experiments and were further required to have been quantified with R<20 in one additional experiment.

[2] = molecular target: T2, PLIN3 Perilipin-3 (Homo sapiens, UniProt O60664)
T2 construct: isoTOP-ABPP experiments performed in cell lysates (in vitro); endogenous in cells; host or cells: MDA-MB-231 soluble lysate
T2 sequence (O60664 1-434): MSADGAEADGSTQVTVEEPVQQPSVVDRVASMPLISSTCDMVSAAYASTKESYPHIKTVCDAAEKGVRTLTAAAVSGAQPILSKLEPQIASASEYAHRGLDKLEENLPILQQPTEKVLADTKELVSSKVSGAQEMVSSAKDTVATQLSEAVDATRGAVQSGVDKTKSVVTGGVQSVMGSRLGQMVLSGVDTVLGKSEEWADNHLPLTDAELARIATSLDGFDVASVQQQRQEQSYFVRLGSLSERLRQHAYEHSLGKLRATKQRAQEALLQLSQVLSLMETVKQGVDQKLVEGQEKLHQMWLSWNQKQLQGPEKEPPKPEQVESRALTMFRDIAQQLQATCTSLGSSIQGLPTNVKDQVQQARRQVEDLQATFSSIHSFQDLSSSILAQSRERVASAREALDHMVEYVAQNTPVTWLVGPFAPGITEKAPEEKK
Description: as §1, §2, §3, §4

[3] = molecular target: T3, KPNA2 Importin subunit alpha-2 (Homo sapiens, UniProt P52292); details: for isoTOP-ABPP ratio (R) at liganded lysine P52292_K459: 50 uM, in vitro, sol, 231
T3 construct: isoTOP-ABPP experiments performed in cell lysates (in vitro); endogenous in cells; host or cells: soluble proteome of human cancer cell lines (MDA-MB-231, Ramos, Jurkat)
In short: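 Fragments at 50 μM (activated esters) or 100 μM (guanidinylating agents) were incubated with 0.5 ml lysate before probe labeling. After 0.1 mM STP-alkyne for 1 h, samples were clicked to isotopically distinct TEV tags, and R taken as DMSO-over-compound MS1 peak-area ratio.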

[4] = molecular target: T4, ADK Adenosine kinase (Homo sapiens, UniProt P55263); details: for isoTOP-ABPP ratio (R) at liganded lysine P55263_K88: 50 uM, in vitro, sol, 231
T4 construct: isoTOP-ABPP experiments performed in cell lysates (in vitro); endogenous in cells; host or cells: soluble proteome of human cancer cell lines (MDA-MB-231, Ramos, Jurkat)
T4 sequence (P55263 whole entry): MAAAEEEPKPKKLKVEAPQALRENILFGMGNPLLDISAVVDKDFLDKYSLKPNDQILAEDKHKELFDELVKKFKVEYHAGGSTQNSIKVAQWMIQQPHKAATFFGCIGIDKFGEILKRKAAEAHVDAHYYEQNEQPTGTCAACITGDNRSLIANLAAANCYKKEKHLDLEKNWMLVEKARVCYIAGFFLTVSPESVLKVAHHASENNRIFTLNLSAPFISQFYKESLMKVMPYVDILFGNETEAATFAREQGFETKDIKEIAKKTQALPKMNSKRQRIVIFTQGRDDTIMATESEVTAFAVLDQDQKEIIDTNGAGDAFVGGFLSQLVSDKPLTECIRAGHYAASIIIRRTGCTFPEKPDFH
Description: as §1, §2, §3, §4

[5] = molecular target: T5, ABHD10 Abhydrolase domain-containing protein 10, mitochondrial (Homo sapiens, UniProt Q9NUJ1); details: for isoTOP-ABPP ratio (R) at liganded lysine Q9NUJ1_K185: 50 uM, in vitro, sol, 231
T5 construct: endogenous in cells; host or cells: MDA-MB-231 lysate
T5 sequence (Q9NUJ1 53-306): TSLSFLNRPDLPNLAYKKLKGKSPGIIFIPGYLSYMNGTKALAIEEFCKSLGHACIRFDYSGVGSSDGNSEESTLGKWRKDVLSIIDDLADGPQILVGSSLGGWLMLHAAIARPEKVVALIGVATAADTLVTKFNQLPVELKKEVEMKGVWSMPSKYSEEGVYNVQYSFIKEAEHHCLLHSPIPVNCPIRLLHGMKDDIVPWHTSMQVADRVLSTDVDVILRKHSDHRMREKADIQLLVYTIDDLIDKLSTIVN
Description: as §1, §2, §3, §4

SMILES | isoTOP-ABPP ratio, lysine O43399_K90 ([1]; 50 uM_231_sol_in vitro) | isoTOP-ABPP ratio, lysine O60664_K257 ([2]; 50 uM_231_sol_in vitro) | isoTOP-ABPP ratio, lysine P52292_K459 ([3]; 50 uM_231_sol_in vitro) | isoTOP-ABPP ratio, lysine P55263_K88 ([4]; 50 uM_231_sol_in vitro) | isoTOP-ABPP ratio, lysine Q9NUJ1_K185 ([5]; 50 uM_231_sol_in vitro) | also measured
CC(C)(C)OC(=O)NCCCC(=O)Oc1ccc([N+](=O)[O-])cc1[N+](=O)[O-] [fragment 41, 2,4-Dinitrophenyl 4-((tert-butoxycarbonyl)amino)butanoate] | – | – | – | – | – | isoTOP-ABPP ratio (R) at liganded lysine O43399_K90 [1]: 1.3; isoTOP-ABPP ratio (R) at liganded lysine O60664_K140 ([2]; 50 uM, in vitro, sol, 231): 2.1; isoTOP-ABPP ratio (R) at liganded lysine P52292_K459 [3]: 2.3; isoTOP-ABPP ratio (R) at liganded lysine P55263_K88 [4]: 1.5; isoTOP-ABPP ratio (R) at liganded lysine Q9NUJ1_K185 [5]: 3.3
O=C(Oc1ccc([N+](=O)[O-])cc1[N+](=O)[O-])C(c1ccccc1)(c1ccccc1)c1ccccc1 [fragment 42, 2,4-Dinitrophenyl 2,2,2-triphenylacetate] | – | – | – | – | – | isoTOP-ABPP ratio (R) at liganded lysine O43399_K90 [1]: 1.0; isoTOP-ABPP ratio (R) at liganded lysine O60664_K140 ([2]; 50 uM, in vitro, sol, 231): 0.9; isoTOP-ABPP ratio (R) at liganded lysine O60664_K257 ([2]; 50 uM, in vitro, sol, 231): 0.9; isoTOP-ABPP ratio (R) at liganded lysine P52292_K459 [3]: 0.9; isoTOP-ABPP ratio (R) at liganded lysine P55263_K88 [4]: 1.0; isoTOP-ABPP ratio (R) at liganded lysine Q9NUJ1_K185 [5]: 1.0
N#Cc1ccc(C(=O)Oc2ccc([N+](=O)[O-])cc2[N+](=O)[O-])cc1 [fragment 44, 2,4-Dinitrophenyl 4-cyanobenzoate] | 1.1 | 1.9 | 1.6 | 0.5 | 1.2 | –
O=C(CCc1ccc2c(c1)OCO2)Oc1ccc([N+](=O)[O-])cc1[N+](=O)[O-] [fragment 45, 2,4-Dinitrophenyl 3-(benzo[d][1,3]dioxol-5-yl)propanoate] | 1.5 | 2.5 | 1.7 | 1.3 | 1.2 | isoTOP-ABPP ratio, lysine O60664_K140 ([2]; 50 uM_231_sol_in vitro): 2.1
O=C(ON1C(=O)CCC1=O)c1cc(C(F)(F)F)cc(C(F)(F)F)c1 [fragment 46, 3,5-Bis(trifluoromethyl)benzoic acid NHS ester] | 1.4 | 0.6 | 1.4 | 0.8 | 1.2 | –
O=C(Oc1c(F)c(F)cc(F)c1F)c1cc(C(F)(F)F)cc(C(F)(F)F)c1 [fragment 48, 2,3,5,6-Tetrafluorophenyl 3,5-bis(trifluoromethyl)benzoate] | 1.8 | – | 1.1 | 0.9 | 2.7 | isoTOP-ABPP ratio, lysine O60664_K140 ([2]; 50 uM_231_sol_in vitro): 1.3
COC(=O)NC(=NC(=O)OCC1c2ccccc2-c2ccccc21)n1cccn1 [fragment 49, N-Methoxycarbonyl-N′-9-fluorenylmethoxycarbonyl-pyrazole-1-carboxamidine] | – | – | – | – | – | isoTOP-ABPP ratio, lysine O43399_K90 ([1]; 100 uM_231_sol_in vitro): 2.9; isoTOP-ABPP ratio, lysine O60664_K140 ([2]; 100 uM_231_sol_in vitro): 3.0; isoTOP-ABPP ratio, lysine P52292_K459 ([3]; 100 uM_231_sol_in vitro): 1.1; isoTOP-ABPP ratio, lysine P55263_K88 ([4]; 100 uM_231_sol_in vitro): 1.2; isoTOP-ABPP ratio, lysine Q9NUJ1_K185 ([5]; 100 uM_231_sol_in vitro): 1.5
CC(C)(C)OC(=O)N=C(NC(=O)OC(C)(C)C)n1cccn1 [fragment 50, reference compound] | – | – | – | – | – | isoTOP-ABPP ratio, lysine O43399_K90 ([1]; 100 uM_231_sol_in vitro): 2.2; isoTOP-ABPP ratio, lysine O60664_K140 ([2]; 100 uM_231_sol_in vitro): 1.8; isoTOP-ABPP ratio, lysine P52292_K459 ([3]; 100 uM_231_sol_in vitro): 1.6; isoTOP-ABPP ratio, lysine P55263_K88 ([4]; 100 uM_231_sol_in vitro): 1.0; isoTOP-ABPP ratio, lysine Q9NUJ1_K185 ([5]; 100 uM_231_sol_in vitro): 1.3
NC(=O)c1cc(C(F)(F)F)cc(C(F)(F)F)c1 [fragment 51, reference compound] | 1.0 | 1.0 | 0.9 | 0.8 | 1.0 | –
